Data: PubChem BioAssay (NCI)
“And” between values parts separate entries of the source, which are not always exact repeats. Identical values can stand only once.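 Briefly, cells in 96-well plates were exposed to five compound concentrations for 48 h, and endpoints were estimated by linear interpolation. Here, GI50 denotes the concentration required for 50% inhibition of growth. TGI: concentration producing complete growth inhibition.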

Key:
Test in all cases: NCI tumour cell line growth inhibition, 48 h
[1] = tested on: 786-0 renal
[2] = tested on: CCRF-CEM leukemia
[3] = tested on: HOP-92 NSCLC
[4] = tested on: MCF7 breast
[5] = tested on: SF-268 CNS
[6] = tested on: SK-MEL-28 melanoma
[7] = tested on: SK-MEL-5 melanoma
[8] = tested on: SNB-19 CNS
[9] = tested on: SR leukemia
[10] = tested on: U251 CNS

| Structure (SMILES) | GI50 [1] | TGI [1] | GI50 [2] | TGI [2] | GI50 [3] | TGI [3] | GI50 [4] | TGI [4] | GI50 [5] | TGI [5] | GI50 [6] | TGI [6] | GI50 [7] | TGI [7] | GI50 [8] | TGI [8] | GI50 [9] | TGI [9] | GI50 [10] | TGI [10] |
| --- | --- | --- | --- | --- | --- | --- | --- | --- | --- | --- | --- | --- | --- | --- | --- | --- | --- | --- | --- | --- |
| O=C1C(Nc2cccc(O)c2)=C(Sc2ccc(Cl)cc2)C(=O)N1Cc1ccccc1 | 17800 nM | 50 µM | 4080 nM | 34.8 µM | 4730 nM | 30.7 µM | 5860 nM | > 100 µM | 8.73 µM | 44.6 µM | 11000 nM | 40.9 µM | 8440 nM | 24.7 µM | 25100 nM | > 100 µM | 3410 nM | 14.1 µM | 10.3 µM | 29.4 µM |
| Cc1sc2c(c1C)C(c1ccc(Cl)cc1)=N[C@@H](CC(=O)Nc1ccc(O)cc1)c1nnc(C)n1-2 | 837 nM | 24.8 µM | 317 nM | 31.4 µM | 42.3 nM | 13.1 µM | 55.3 nM | 18.2 µM | 11.8 µM | 50.8 µM | 5310 nM | 26.4 µM | 472 nM | 14.9 µM | 721 nM | 31.3 µM | 344 nM | 28.6 µM | 3.78 µM | 21.7 µM |
| COc1cc2c(cc1-c1c(C)noc1C)ncc1[nH]c(=O)n([C@H](C)c3ccccn3)c12 | 5040 nM | > 100 µM | 1030 nM | > 100 µM | 67.7 nM | 37.3 µM | 195 nM | > 100 µM | 11.7 µM | > 100 µM | 695 nM | > 90.7 µM | 2770 nM | > 44 µM | 1160 nM | > 100 µM | 75.6 nM | > 100 µM | 8.82 µM | > 100 µM |
| CN(C)CCC(=O)NCc1c2nc3ccccc3nc2n2ccccc12 | 19000 nM | 45.9 µM | 25700 nM | 78.8 µM | 34600 nM | > 100 µM | 17400 nM | > 100 µM | 41.5 µM | > 100 µM | 83900 nM | > 100 µM | 16800 nM | 52.8 µM | 52900 nM | > 100 µM | 16900 nM | 41.8 µM | > 100 µM | > 100 µM |
| Cc1cccc2cc3ccc4ccccc4c3cc12 |  | > 100 µM |  | 39.3 µM |  | > 100 µM |  | 98 µM |  | > 100 µM |  | > 100 µM |  | 52.6 µM |  | > 100 µM |  | 47.4 µM |  | > 100 µM |
| O=C(Nc1ccc([N+](=O)[O-])cc1)c1cc2ccccc2cc1O | 399 nM | 1.91 µM | 754 nM | > 100 µM | 172 nM | 0.557 µM | 1320 nM | 11.3 µM | 0.515 µM | 15.2 µM | 448 nM | > 36.5 µM | 221 nM | 0.534 µM | 405 nM | 27.8 µM | 274 nM | 1.05 µM | 0.36 µM | 13.1 µM |
| CCCCc1oc2ccccc2c1C(=O)c1cc(I)c(OCCN(CC)CC)c(I)c1 | 1640 nM | 3.31 µM | 1820 nM | 4.35 µM and 12 µM | 625 nM | 2.46 µM and 10.3 µM | 1780 nM | 3.71 µM and 10.8 µM | 3.28 µM | 14 µM and 38.9 µM | 1910 nM | 4 µM and 10.1 µM |  | 2.76 µM | 2040 nM | 5.35 µM and 18.7 µM | 1680 nM | 4.24 µM | 1.57 µM | 3 µM and 7.73 µM |
| CO[C@H]1/C=C/C[C@H](C)[C@@H](C)S(=O)(=O)NC(=O)c2ccc3c(c2)N(C[C@@H]2CC[C@H]21)C[C@@]1(CCCc2cc(Cl)ccc21)CO3 | 2900 nM | 8.27 µM | 1300 nM | 5.03 µM | 1550 nM | 3.4 µM | 1430 nM | 9.77 µM | 3.6 µM | 14 µM | 2610 nM | 8.04 µM | 1610 nM | 3.15 µM | 3450 nM | 14.1 µM | 670 nM | 12.2 µM | 2.47 µM | 6.86 µM |
| CN(C)CCN1C(=O)c2cccc3c(-c4ccc5ncn(C6CCCCC6)c5c4)ccc(c23)C1=O | 1590 nM | 12.2 µM | 1840 nM | 7.22 µM | 1790 nM | 6.45 µM | 1560 nM | 11.1 µM | 2.73 µM | 12.8 µM | 2180 nM | 5.66 µM | 1440 nM | 2.85 µM | 1880 nM | 20.1 µM | 496 nM | 5.47 µM | 2 µM | 11.5 µM |
| C=C1C(=O)O[C@H]2[C@H]1CC/C(COC(=O)NCc1cccc(OC)c1)=C\CC[C@@]1(C)O[C@@H]21 | 1840 nM | 3.61 µM | 1140 nM | 4.76 µM | 1320 nM | 2.96 µM | 2360 nM | 8.97 µM | 3.21 µM | 12.1 µM | 1840 nM | 3.82 µM | 1640 nM | 3.2 µM | 6420 nM | 20 µM | 1300 nM | 12 µM | 3.65 µM | 14.9 µM |
